Measured values: patent US20260191849A1, “PHARMACEUTICAL COMPOSITION FOR TREATMENT OF CANCER” (WIGEN BIOMEDICINE TECHNOLOGY (SHANGHAI) CO., LTD., priority 2022, published 2026)
pIC50: −log10 of the molar value.

Columns and labels:
[1] = test system: HT29 subcutaneous xenograft tumors; assay: In vivo pharmacodynamic study of combination therapy, HT29 subcutaneous xenograft tumor model of mice (Biological Example 14); design: species or system BALB/c nude mice
Source text: BALB/c nude mice were each inoculated subcutaneously with 5×10^6 HT29 cells on the left dorsal side. After the tumors grew to 100-150 mm^3, the mice were randomly divided into the following groups for intragastric administration once daily for 14 consecutive days: group 1: vehicle control group; group 2: AMG650 (50 mpk, PO, QD); group 3: compound 714 (50 mpk, PO, QD); group 4: AMG650 (50 mpk, PO, QD)+Onvasertib (20 mpk, PO, QD); group 5: compound 714 (50 mpk, PO, QD)+Onvasertib (20 mpk, PO, QD); and group 6: Onvasertib (20 mpk, PO, QD). The administration to all the groups was stopped on day 15, and the tumor growth continued to be observed until day 21. The tumor volume was measured twice weekly and at the end of administration. […]

[2] = test system: HT29 subcutaneous xenograft tumors; assay: In vivo pharmacodynamic study, HT29 subcutaneous xenograft tumor model of mice (Biological Example 3); design: species or system BALB/c nude mice; settings: 80 mg/kg intragastric once daily, day 28
Experimental: BALB/c nude mice were each inoculated subcutaneously with 5×10^6 HT29 cells on the left dorsal side. After the tumors grew to 100-150 mm^3, the mice were randomly divided into the following groups for intragastric administration once daily: group 1: vehicle control group; group 2: compound 661 (80 mg/kg); group 3: compound 669 (80 mg/kg); group 4: compound 677 (80 mg/kg); group 5: compound 714 (80 mg/kg); group 6: compound 727 (80 mg/kg); group 7: compound 740 (80 mg/kg); and group 8: AMG65 (80 mg/kg). The tumor volume was measured twice weekly and at the end of administration. […].

HCT116 cells [3] = assay: In vitro anti-proliferative activity against HCT116 cells (Biological Example 2); format: cell-based; settings: in words, from Table 4
Experimental: HCT116 cells were seeded on a 384-well plate at 3000 cells/well. After overnight adherence culture, DMSO or the compounds serially diluted in a 1:5 ratio from 5 μM were added. The cell viability was assessed 72 h after dosing by measuring the intracellular ATP content. The inhibition percentages of viable cells by the compounds were calculated by comparing with the DMSO group, and the IC50 values were also calculated.

HT29 cells [4] = assay: Combined use of compound 257 with Aurora B inhibitor on HT29 cell viability, 72 h (Biological Example 11); format: cell-based; settings: for pIC50: Homo sapiens, HT-29, 72 h, HT29 cells
Experimental: HT29 cells were seeded on a 384-well plate at 3000 cells/well. After overnight adherence culture, DMSO or compound 257 serially diluted in a 1:5 ratio from 5 μM and an Aurora B inhibitor with a specified concentration were added. The cell viability was assessed 72 h after dosing by measuring the intracellular ATP content. The inhibition percentages of viable cells by the compounds were calculated by comparing with the DMSO group, and the IC50 values were also calculated.

HCT116 cells [5] = assay: Combined use of compound 257 with Aurora B inhibitor on HCT116 cell viability, 72 h (Biological Example 12); format: cell-based
Experimental: HCT116 cells were seeded on a 384-well plate at 3000 cells/well. After overnight adherence culture, DMSO or compound 257 serially diluted in a 1:5 ratio from 5 μM and an Aurora B inhibitor with a specified concentration were added. The cell viability was assessed 72 h after dosing by measuring the intracellular ATP content. The inhibition percentages of viable cells by the compounds were calculated by comparing with the DMSO group, and the IC50 values were also calculated.

HCT116 cells [6] = assay: Combined use of compound 257 with PLK1 inhibitor on HCT116 cell viability, 72 h (Biological Example 6); format: cell-based
Experimental: HCT116 cells were seeded on a 384-well plate at 3000 cells/well. After overnight adherence culture, DMSO or compound 257 serially diluted in a 1:5 ratio from 5 μM and a PLK1 inhibitor with a specified concentration were added. The cell viability was assessed 72 h after dosing by measuring the intracellular ATP content. The inhibition percentages of viable cells by the compounds were calculated by comparing with the DMSO group, and the IC50 values were also calculated.

HT29 cells [7] = assay: Combined use of compound 257 with PLK1 inhibitor on HT29 cell viability, 72 h (Biological Example 5); format: cell-based; settings: for pIC50: Homo sapiens, HT-29, 72 h, HT29 cells
Experimental: HT29 cells were seeded on a 384-well plate at 3000 cells/well. After overnight adherence culture, DMSO or compound 257 serially diluted in a 1:5 ratio from 5 μM and a PLK1 inhibitor with a specified concentration were added. The cell viability was assessed 72 h after dosing by measuring the intracellular ATP content. The inhibition percentages of viable cells by the compounds were calculated by comparing with the DMSO group, and the IC50 values were also calculated.

[8] = PO QD 14 days, AMG650/714 50 mpk, Onvasertib 20 mpk, day 15
[9] = PO QD 14 days, AMG650/714 50 mpk, Onvasertib 20 mpk, day 21, after stop of administration

Cc1cc(NC(=O)c2ccc(NS(=O)(=O)CCO)cc2N2CCC3(CC2)CC3)nc(N2CCC(F)(F)CC2)n1 [AMG650]
Tumor volume on day 1 of administration ([1]; PO QD 14 days, AMG650/714 50 mpk, Onvasertib 20 mpk, day 1 (baseline)): 132 mm^3
TGI on day 15 [1, 8]: 115%
Tumor volume on day 15 of administration [1, 8]: 49 mm^3
TGI on day 21 [1, 9]: 100%
Tumor volume on day 21 of administration [1, 9]: 126 mm^3
tumor inhibitory effect, combined use with the PLK1 inhibitor Onvasertib compared with monotherapy ([1]; combined with Onvasertib, in words): stronger tumor inhibitory effect
therapeutic efficacy of monotherapy in HT29-bearing mice ([1]; monotherapy, in words): able to inhibit tumor growth
TGI [2]: 64%
anti-proliferative activity against HCT116 cells (HCT116 cells [3]): neither the compounds of the present disclosure nor AMG65 exhibited anti-proliferative activity

COc1ccc(NC(=O)c2ccc(NS(=O)(=O)CCO)cc2N2CCC3(CC2)CC3)nc1N1CCC(F)(F)CC1 [Compound 257]
pIC50 (HT29 cells [4]; Barasertib 0 nM): 7.86
pIC50 (HT29 cells [4]; Barasertib 20 nM): 8.14
pIC50 (HT29 cells [4]; Barasertib 100 nM): 8.38
pIC50 (HT29 cells [4]; Barasertib 500 nM): 8.48
pIC50 (HT29 cells [4]; SP-96 0 nM): 7.84
pIC50 (HT29 cells [4]; SP-96 20 nM): 7.79
pIC50 (HT29 cells [4]; SP-96 100 nM): 7.84
pIC50 (HT29 cells [4]; SP-96 500 nM): 8.24
inhibitory effect on HT-29 cells, combined use with the Aurora B inhibitor compared with monotherapy (HT29 cells [4]; in words): stronger inhibitory effect
pIC50 (HCT116 cells [5]; HCT116 cells, Barasertib 0 nM): < 5.00
pIC50 (HCT116 cells [5]; HCT116 cells, Barasertib 10 nM): < 5.00
pIC50 (HCT116 cells [5]; HCT116 cells, Barasertib 100 nM): < 5.00
pIC50 (HCT116 cells [5]; Homo sapiens, HCT-116, HCT116 cells, Barasertib 1000 nM): < 5.00
anti-proliferative activity against HCT116 cells, monotherapy (HCT116 cells [5]; in words): did not exhibit anti-proliferative activity
synergistic effect on HCT116 cell viability, combined use with the Aurora B inhibitor (HCT116 cells [5]; in words): no significant synergistic effect
pIC50 (HCT116 cells [6]; HCT116 cells, Volasertib 10 nM): < 5.00
pIC50 (HCT116 cells [6]; HCT116 cells, Volasertib 50 nM): < 5.00
pIC50 (HCT116 cells [6]; Homo sapiens, HCT-116, HCT116 cells, Volasertib 0 nM): < 5.00
anti-proliferative activity against HCT116 cells, monotherapy (HCT116 cells [6]; in words): did not exhibit anti-proliferative activity
synergistic effect on HCT116 cell viability, combined use with the PLK1 inhibitor (HCT116 cells [6]; in words): no significant synergistic effect
pIC50 (HT29 cells [7]; BI 2536 0 nM): 7.87
pIC50 (HT29 cells [7]; BI 2536 1.25 nM): 8.00
pIC50 (HT29 cells [7]; BI 2536 2.5 nM): 8.21
pIC50 (HT29 cells [7]; BI 2536 5 nM): 8.70
pIC50 (HT29 cells [7]; BI 2536 10 nM): 9.22
pIC50 (HT29 cells [7]; GSK461364 0 nM): 7.87
pIC50 (HT29 cells [7]; GSK461364 1.25 nM): 7.84
pIC50 (HT29 cells [7]; GSK461364 2.5 nM): 8.06
pIC50 (HT29 cells [7]; GSK461364 5 nM): 8.48
pIC50 (HT29 cells [7]; GSK461364 10 nM): 9.30
pIC50 (HT29 cells [7]; MLN0905 0 nM): 7.88
pIC50 (HT29 cells [7]; MLN0905 12.5 nM): 8.33
pIC50 (HT29 cells [7]; MLN0905 25 nM): 9.30
pIC50 (HT29 cells [7]; Onvansertib 0 nM): 7.90
pIC50 (HT29 cells [7]; Onvansertib 12.5 nM): 8.28
pIC50 (HT29 cells [7]; Onvansertib 25 nM): 9.10
pIC50 (HT29 cells [7]; Rigosertib 0 nM): 7.84
pIC50 (HT29 cells [7]; Rigosertib 12.5 nM): 7.91
pIC50 (HT29 cells [7]; Rigosertib 25 nM): 7.82
pIC50 (HT29 cells [7]; Rigosertib 50 nM): 8.04
pIC50 (HT29 cells [7]; Rigosertib 100 nM): 9.40
pIC50 (HT29 cells [7]; Ro3280 0 nM): 7.87
pIC50 (HT29 cells [7]; Ro3280 12.5 nM): 8.54
pIC50 (HT29 cells [7]; Ro3280 25 nM): 9.40
pIC50 (HT29 cells [7]; Volasertib 0 nM): 7.88
pIC50 (HT29 cells [7]; Volasertib 12.5 nM): 8.96
pIC50 (HT29 cells [7]; Volasertib 25 nM): 9.15
inhibitory effect on HT-29 cells, combined use with the PLK1 inhibitor compared with monotherapy (HT29 cells [7]; in words): stronger inhibitory effect
